Source: article PMC8312697, “Mechanistic Investigations Support Liver Safety of Ubrogepant” (Toxicological Sciences, 2020)
Read-outs that look alike come from different tables or passages of the source.

Assays:
Clinical study exposures = format: in vivo, human
mouse = assay: Conventional nonclinical toxicology study, mouse
HepG2 cells = assay: Oxidative stress assay (ROS, DHE fluorescence); format: cell-based, human
Protocol: Three independent studies in triplicate were conducted on HepG2 cells, and two independent studies in triplicate were conducted on primary human hepatocytes.
(§1) To assess the potential for ubrogepant to induce oxidative stress, assays to measure formation of reactive oxygen species (ROS) were conducted by Cyprotex. HepG2 cells were cultured in triplicate with ubrogepant for 6 or 24 hours at concentrations ranging from 0.01 – 150 μM, and ROS formation was assayed by DHE fluorescence assay. HepG2 cells have reduced metabolic activity relative to primary human hepatocytes.^3,4 Three independent studies in triplicate were conducted on HepG2 cells.
as §1, with “MK-3207” for “ubrogepant”, “ROS” for “reactive oxygen species (ROS)”, “μM” for “μM,”, “conducted.” for “conducted on HepG2 cells.”

[1] = tested on: mitochondrial electron transport chain (ETC); assay: MITOsym/DILIsym fit of OCR data (ETC inhibition parameters); parameters: species or system human; details: for DILIsym ETC inhibition constant: MITOsym value × scaling factor of 34.7
Protocol: MITOsym® parameters were then translated to DILIsym® parameters using a scaling factor calculated using classic exemplar compounds that perturb different pathways of mitochondrial respiration (e.g., rotenone for ETC inhibition, FCCP for uncoupling).
The parameter values for ubrogepant were determined by reproducing the cell count-corrected OCR data in MITOsym®, a mechanistic model of mitochondrial function in the in vitro setting. MITOsym parameters were then translated to DILIsym parameters using a scaling factor calculated using classic exemplar compounds that perturb different pathways of mitochondrial respiration (e.g., rotenone for ETC inhibition, FCCP for uncoupling).
Mitochondrial toxicity parameter values for MK-3207 were determined by reproducing the cell count-corrected OCR response to MK-3207 dosing in both MITOsym and DILIsym. The ETC inhibition coefficient from the MITOsym parameters was then translated to a DILIsym parameter using a scaling factor calculated using classic exemplar compounds that perturb different pathways of mitochondrial respiration (e.g., rotenone for ETC inhibition, FCCP for uncoupling), similar to ubrogepant. The maximum inhibition potency from the DILIsym fit was combined with this value in the final parameter set.

BSEP = target: T1, BSEP (Homo sapiens, UniProt O95342); assay: BSEP vesicular transport inhibition assay; format: biochemical; details: for Vmax of taurocholate: BSEP vesicle assay; for BSEP inhibition type: from Km and Vmax changes / model fit; for inhibition of BSEP-mediated probe substrate transport: vesicular transport inhibition assay; for alpha (mixed inhibition model): BSEP
T1 construct: Solvo Biotechnology (Szeged, Hungary), contract laboratory that ran the assay
T1 sequence (O95342 whole entry): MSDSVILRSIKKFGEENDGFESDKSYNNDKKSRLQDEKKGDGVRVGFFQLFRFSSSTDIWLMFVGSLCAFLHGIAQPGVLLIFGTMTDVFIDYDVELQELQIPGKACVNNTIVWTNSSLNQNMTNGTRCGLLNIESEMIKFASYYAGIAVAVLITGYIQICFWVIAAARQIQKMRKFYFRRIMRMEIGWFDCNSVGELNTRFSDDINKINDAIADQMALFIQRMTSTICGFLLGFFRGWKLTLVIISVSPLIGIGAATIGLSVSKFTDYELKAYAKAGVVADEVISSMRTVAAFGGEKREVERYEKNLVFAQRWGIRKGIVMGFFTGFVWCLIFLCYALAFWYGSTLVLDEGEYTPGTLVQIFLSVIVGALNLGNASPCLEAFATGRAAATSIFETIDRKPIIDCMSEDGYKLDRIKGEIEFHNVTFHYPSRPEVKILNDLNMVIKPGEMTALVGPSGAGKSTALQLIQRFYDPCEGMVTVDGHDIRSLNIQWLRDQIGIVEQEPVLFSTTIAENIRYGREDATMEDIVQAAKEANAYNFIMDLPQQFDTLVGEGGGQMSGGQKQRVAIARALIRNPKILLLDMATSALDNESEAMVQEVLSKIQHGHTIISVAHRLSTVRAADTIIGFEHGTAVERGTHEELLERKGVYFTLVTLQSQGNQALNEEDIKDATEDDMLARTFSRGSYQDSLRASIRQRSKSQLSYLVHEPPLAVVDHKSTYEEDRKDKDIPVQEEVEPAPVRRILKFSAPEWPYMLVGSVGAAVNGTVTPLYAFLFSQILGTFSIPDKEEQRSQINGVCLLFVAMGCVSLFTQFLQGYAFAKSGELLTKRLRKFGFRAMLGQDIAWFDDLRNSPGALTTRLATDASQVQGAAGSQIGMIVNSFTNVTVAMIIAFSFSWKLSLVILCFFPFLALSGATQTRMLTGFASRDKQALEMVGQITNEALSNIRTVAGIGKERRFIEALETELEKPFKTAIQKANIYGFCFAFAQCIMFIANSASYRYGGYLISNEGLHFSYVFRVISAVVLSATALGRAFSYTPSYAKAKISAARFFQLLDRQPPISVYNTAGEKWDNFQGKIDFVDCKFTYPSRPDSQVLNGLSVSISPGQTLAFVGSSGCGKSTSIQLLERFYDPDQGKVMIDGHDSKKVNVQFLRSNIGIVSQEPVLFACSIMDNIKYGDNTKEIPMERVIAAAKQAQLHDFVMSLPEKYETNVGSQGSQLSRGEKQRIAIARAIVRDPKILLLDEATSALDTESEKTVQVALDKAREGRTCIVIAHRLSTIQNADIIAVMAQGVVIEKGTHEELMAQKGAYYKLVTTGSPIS
Protocol: These assays were conducted by Solvo Biotechnology and overseen by DSSI.
(§2) To assess the functional impact of ubrogepant on the human ABC efflux transporters BSEP, MRP3, and MRP4, in vitro vesicular transport inhibition assays were conducted by Solvo Biotechnology (Szeged, Hungary). The ability of ubrogepant to inhibit the BSEP-mediated transport (and accumulation) of a probe substrate was tested at concentrations ranging from 0.04 – 30 μM, where the latter defined the upper limit of compound solubility in the BSEP assay buffer. For the MRP3 and MRP4 vesicle-based transporter assessments, ubrogepant concentrations of 0.1 to 70 μM were used. To assess the functional impact of ubrogepant on the human SLC (uptake) transporter NTCP, in vitro experiments were performed using HEK293 cells stably expressing NTCP. The ability of ubrogepant to inhibit NTCP-mediated uptake (and accumulation) of taurocholate was tested at concentrations ranging from 0.04 – 30 μM.
In the current project, additional assays were conducted to determine the Ki value and inhibition type for ubrogepant for BSEP-mediated bile acid transport. These assays were conducted by Solvo Biotechnology and overseen by DSSI. Briefly, BSEP inhibition studies were performed with multiple substrate concentrations (0.39 – 50 µM taurocholate) and multiple inhibitor concentrations (0.5 – 30 µM ubrogepant). Ki and inhibition type for ubrogepant were determined by fitting a mixed inhibition model to the untransformed data by nonlinear regression analysis. It was assumed that inhibition type for ubrogepant for other transporters (i.e., MRP3 and MRP4) was mixed with α= 5; this is a typical value for bile acid transporter inhibitors in the experience of the DSS team.
(§3) To assess the functional impact of MK-3207 on the human ABC efflux transporters BSEP, MRP3 and MRP4, in vitro vesicular transport inhibition assays were conducted by Solvo Biotechnology (Szeged, Hungary) and overseen by DSSI. BSEP transport was assessed in the presence of 0.5-30 µM MK-3207; MRP3 and MRP4 transport was assessed in the presence of 0.11-80 µM MK-3207. The upper limits of these ranges were determined by compound solubility in each assay buffer. NTCP transporter inhibition was assessed in NTCP-expressing HEK293 cells in the presence of 0.03 – 25 µM MK-3207.
In these experiments, taurocholic acid (TCA) transport was assessed at a range of MK-3207 concentrations (0.04 – 30 µM) as well as at a range of TCA media concentrations (0.39 – 50 µM). A Ki was then determined by fitting a mixed inhibition model to the inhibition data by nonlinear regression analysis.

MRP3 = target: T2, MRP3 (Homo sapiens, UniProt O15438); assay: MRP3 vesicular transport inhibition assay; format: biochemical; details: for inhibition of MRP3-mediated probe substrate transport: vesicular transport inhibition assay
T2 construct: Solvo Biotechnology (Szeged, Hungary), contract laboratory that ran the assay
T2 sequence (O15438 whole entry): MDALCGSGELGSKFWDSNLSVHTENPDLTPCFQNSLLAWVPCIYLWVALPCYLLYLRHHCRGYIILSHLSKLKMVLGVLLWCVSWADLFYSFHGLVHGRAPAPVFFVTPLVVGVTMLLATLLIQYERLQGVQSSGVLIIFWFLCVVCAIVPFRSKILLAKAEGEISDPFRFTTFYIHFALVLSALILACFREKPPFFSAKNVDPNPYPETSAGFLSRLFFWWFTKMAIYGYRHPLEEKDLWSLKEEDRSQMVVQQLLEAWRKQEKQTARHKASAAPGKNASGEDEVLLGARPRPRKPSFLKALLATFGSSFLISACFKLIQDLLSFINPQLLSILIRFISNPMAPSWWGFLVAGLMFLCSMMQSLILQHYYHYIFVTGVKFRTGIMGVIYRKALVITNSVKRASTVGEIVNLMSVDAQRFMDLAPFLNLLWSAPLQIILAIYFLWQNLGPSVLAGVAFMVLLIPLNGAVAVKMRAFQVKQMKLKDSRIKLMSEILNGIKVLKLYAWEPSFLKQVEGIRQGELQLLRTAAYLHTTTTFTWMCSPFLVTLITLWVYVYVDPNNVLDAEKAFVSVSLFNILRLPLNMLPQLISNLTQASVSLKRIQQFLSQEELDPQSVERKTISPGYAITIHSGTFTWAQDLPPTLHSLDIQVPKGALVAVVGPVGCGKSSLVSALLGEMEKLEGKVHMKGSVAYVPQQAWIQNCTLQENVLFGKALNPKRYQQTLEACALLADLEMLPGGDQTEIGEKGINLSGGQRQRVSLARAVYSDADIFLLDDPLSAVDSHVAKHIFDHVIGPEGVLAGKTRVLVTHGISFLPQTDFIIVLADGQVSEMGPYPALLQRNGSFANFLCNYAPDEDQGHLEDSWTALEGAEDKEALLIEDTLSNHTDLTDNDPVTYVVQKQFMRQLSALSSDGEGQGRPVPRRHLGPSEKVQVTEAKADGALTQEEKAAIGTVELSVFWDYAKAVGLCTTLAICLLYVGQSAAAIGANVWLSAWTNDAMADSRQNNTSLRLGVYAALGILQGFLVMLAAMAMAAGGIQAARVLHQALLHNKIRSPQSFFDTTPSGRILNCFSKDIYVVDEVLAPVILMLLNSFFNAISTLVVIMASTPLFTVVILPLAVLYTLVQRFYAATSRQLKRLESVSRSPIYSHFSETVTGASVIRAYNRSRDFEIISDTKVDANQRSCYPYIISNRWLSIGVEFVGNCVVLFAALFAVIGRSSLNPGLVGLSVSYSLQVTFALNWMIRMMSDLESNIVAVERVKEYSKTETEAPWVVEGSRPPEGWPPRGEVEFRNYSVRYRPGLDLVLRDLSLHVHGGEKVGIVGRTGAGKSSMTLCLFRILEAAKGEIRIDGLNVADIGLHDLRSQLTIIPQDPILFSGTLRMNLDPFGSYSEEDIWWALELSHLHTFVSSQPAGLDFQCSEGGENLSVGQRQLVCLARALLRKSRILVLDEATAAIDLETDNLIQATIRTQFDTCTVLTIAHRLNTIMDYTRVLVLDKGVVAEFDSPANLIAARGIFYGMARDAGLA
Protocol: as §2, §3
IC50 values for MK-3207 were calculated for each of the transporters; these values were used as inputs into DILIsym. It was assumed that inhibition type for MK-3207 for MRP3 and MRP4 was mixed with α= 5; this is a typical value for bile acid transporter inhibitors in the experience of the DSS team.

[2] = tested on: clinical trial participants; parameters: cases of ALT or AST ≥ 3× ULN: unit not given here; details: cited from earlier work
[3] = tested on: Nrf2 electrophilic stress and Nrf1 proteasomal stress pathways; assay: In vivo rat liver gene expression bioactivation liver response assay (BA-LRA); details: for maximum liver safe daily dose predicted from BA-LRA: human daily dose projected from rat BA-LRA score; for upregulation of pathways associated with electrophilic and proteasomal stress: rat liver gene expression studies; for BA-LRA score: also presented in Monroe et al., 2018
Excerpt: A prediction of a clinical daily dose burden associated with reactive metabolite-mediated DILI potential was derived from a focused and integrated quantitative rat liver molecular gene expression signature optimized predominantly for Nrf2 electrophilic stress and Nrf1 proteasomal stress pathways to describe a bioactivation liver response assay (BA-LRA) result. […] The clinical dose is identified that projects DILI risk to exceed the optimized threshold calculation for each BA-LRA result.

[4] = among the 5 patients with ALT > 3-fold ULN at > 500 mg daily, ref Hargreaves and Olesen, 2019, Hewitt et al., 2011
[5] = mixed inhibition model, nonlinear regression
[6] = curve fitting assuming maximum inhibition at higher concentrations is 100%, read-out: MRP3 estimated lowest possible IC50

SMILES	Pivotal conventional nonclinical toxicology study liver findings (mouse; 6M mouse)	exposure margin (mouse; 6M mouse) [×]	induction of oxidative stress (ROS formation) (HepG2 cells; HepG2, 6-hour incubation)	induction of oxidative stress (ROS formation) (HepG2 cells; HepG2, 24-hour incubation)	Vmax of taurocholate (BSEP; inhibitor 0.5 µM) [pmol/mg protein/min]	Vmax of taurocholate (BSEP; inhibitor 2.5 µM) [pmol/mg protein/min]	Vmax of taurocholate (BSEP; inhibitor 5 µM) [pmol/mg protein/min]	Vmax of taurocholate (BSEP; inhibitor 15 µM) [pmol/mg protein/min]	Vmax of taurocholate (BSEP; inhibitor 30 µM) [pmol/mg protein/min]	BSEP inhibition type (BSEP)	inhibition of BSEP-mediated probe substrate transport (BSEP)	inhibition of MRP3-mediated probe substrate transport (MRP3)	maximum liver safe daily dose predicted from BA-LRA [3] [mg]	upregulation of pathways associated with electrophilic and proteasomal stress [3]	DILIsym ETC inhibition constant [1] [µM]	alpha (mixed inhibition model) (BSEP; mixed inhibition model)	Ki (BSEP; [5]) [µM]	IC50 (MRP3; [6]) [µM]	also measured
O=C(CN1C(=O)C2(CCCC2)NC[C@H]1c1cc(F)cc(F)c1)Nc1ccc2c(c1)C[C@@]1(C2)C(=O)Nc2ncccc21 [MK-3207]	no liver safety signal	12	not evident	modest induction of oxidative stress	171.9	183.1	174.9	132.5	151.7	competitive model is presumed to be the most likely mode of inhibition	inhibited	inhibited	300	upregulated pathways associated with electrophilic and proteasomal stress	–	–	–	–	clinical study exposure (mean) (Clinical study exposures; Phase 2, 900 mg daily): b Phase 2 clinical study exposures based on mean of 60 μM/h at dose of 900 mg daily; original projected daily dose was 80 mg.; maximal inhibition value (ETC) ([1]; DILIsym fit of HepG2 OCR data): 0.35; ETC inhibition coefficient ([1]; MITOsym constant translated into DILIsym, 1-hour and 24-hour HepG2 OCR data): 0.347 µM; Ki (BSEP; competitive inhibition model): 7.62 µM; IC50 (MRP3; used as basolateral transporter inhibition constant, read-out: MRP3 calculated IC50): 49.9 µM; patients symptomatic with Hy’s law [2, 4]: 1; patients with > 20-fold ALT rises [2, 4]: 3; Clinical ALT > 3× ULN ([2]; daily doses > 500 mg, individuals dosed for more than 1 week, most responding given 600–900 mg per day, ref Hargreaves and Olesen, 2019, Hewitt et al., 2011): 42% (5/12) among individuals dosed for more than 1 week; most responding were given 600–900 mg per day; ALT > 3-fold ULN after 2 weeks ([2]; daily doses of < 100 mg, ref Hargreaves and Olesen, 2019, Hewitt et al., 2011): 1%; BA-LRA score ([3]; rat liver, 600 mg/kg/day × 4 days): 0.34
C[C@@H]1[C@H](c2ccccc2)C[C@H](NC(=O)c2cnc3c(c2)C[C@@]2(C3)C(=O)Nc3ncccc32)C(=O)N1CC(F)(F)F [Ubrogepant]	–	–	not evident	modest induction of oxidative stress	181.3	175.6	171.3	171.9	172.3	likely to be a mixed BSEP inhibitor	inhibited	inhibited	–	did not	472	8.39	38.1	≥ 85.9	clinical study exposure (Clinical study exposures; Phase 3, 100 mg QD): c Phase 3 clinical study exposures based on 2 μM/h at dose of 100 mg QD.; Pivotal conventional nonclinical toxicology study liver findings (mouse; 3M mouse): no liver safety signal; exposure margin (mouse; 3M mouse): 80 ×; MITOsym ETC inhibition constant ([1]; fit of 24-hour HepG2 OCR data): 0.0136 mM; inhibition at 70 µM (MRP3; human, membrane vesicles with MRP3 (vesicular transport assay), 70 µM (solubility limit), read-out: maximum inhibition at the highest concentration tested, MRP3): < 50%; ALT/AST ≥ 3-fold ULN, number of participants ([2]; 100 mg QD 2 days on, 2 days placebo, alternating, 8 weeks, healthy adults, n = 256, ref Goadsby et al., 2019): 2; cases of ALT or AST ≥ 3× ULN ([2]; 52-week long-term extension trial, 1230 people, ref Ailani et al., 2019): 20; BA-LRA response ([3]; rat liver, 7 days with 750 mg/kg): No BA-LRA response
O=C(N[C@@H]1CC[C@@H](c2cccc(F)c2F)CN(CC(F)(F)F)C1=O)N1CCC(n2c(=O)[nH]c3ncccc32)CC1 [Telcagepant]	< 2× ALT/AST with no liver histopathology	14	–	modest induction of oxidative stress	–	186.3	208.1	–	–	likely to be a mixed BSEP inhibitor	inhibited	inhibited	< 600	upregulated pathways associated with electrophilic and proteasomal stress	17400	4.6	7.9	≥ 16.6	clinical study exposure (mean) (Clinical study exposures; Phase 3, 280 mg BID (2 h apart)): a Phase 3 clinical study exposures based on mean of 70 μM/h at dose of 280 mg BID (2 h apart).; MITOsym ETC inhibition constant ([1]; fit of 1 hour HepG2 OCR data): 0.5 mM; Vmax of taurocholate (BSEP; inhibitor 10 µM): 77.52 pmol/mg protein/min; Vmax of taurocholate (BSEP; inhibitor 20 µM): 119.7 pmol/mg protein/min; IC50 (BSEP; vesicular transport, taurocholate, read-out: BSEP estimated IC50): 10.2 µM; BSEP inhibition (BSEP; vesicular transport, up to 20 µM): > 50%; inhibition at 20 µM (MRP3; human, membrane vesicles with MRP3 (vesicular transport assay), read-out: maximum inhibition at the highest concentration tested, MRP3): < 50%; Clinical ALT > 3× ULN ([2]; 140 mg BID 12 weeks, ref Ho et al., 2014): 1.9% (5/258) ([Ho et al., 2014]); Clinical ALT > 3× ULN ([2]; 140 mg BID 12 weeks, ref Ho et al., 2014, listed as telcagepant): 1.9%; Clinical ALT > 3× ULN ([2]; 280 mg BID 12 weeks, ref Ho et al., 2014): 3.2%; BA-LRA score ([3]; rat liver, 400 mg/kg/day × 4 days, evidence of transcriptional suppression): 0.30
